Results reported in US8324395B2, “Heterocyclic compound and use thereof” (Takeda Pharmaceutical Company Limited, priority 2007, dated 2012).
pIC50: −log10 of the molar value.

Assays:
[1] = system: human colon cancer cell HT-29; assay: Colon cancer cell HT-29 growth suppressive action in vitro; type: cell-based; conditions: 72 h, HT-29 cells, 3 days culture, SRB staining of cell protein
Method: A cell suspension (100 μL, 3,000 cells/well) of human colon cancer cell HT-29 (purchased from ATCC) was plated in a 96-well plate, and the cells were cultured at 37° C. in a 5% carbon dioxide gas incubator. The next day, 2-fold serial dilution of each test compound solution (diluted from maximum concentration 20 μM) (100 μL) was added, and the cells were cultured for 3 days. The culture medium containing the test compound was removed, and the cells were washed with phosphate buffer (PBS). A 50% trichloroacetic acid solution was added to the final concentration of 10% (v/v), and the mixture was stood overnight at 4° C., whereby the cells were fixed to the plate. Then, a dye SRB 0.4% (w/v) solution (dissolved in 1% acetic acid) was added at 50 μl/well, whereby the cell protein was fixed and stained (Skehan et al., Journal Of National Cancer Institute, vol. 82, pp. 1107-1112, 1990). The cells were washed 3 times with 1% acetic acid solution (200 μL/well), and 100 μL of an extract (10 mM Tris buffer) was added to extract the dye. The absorbance at an absorption wavelength […] was measured, and cell amount was measured as a protein amount. Taking the protein amount of the control group free of the test compound solution as 100%, the proportion of the residual protein amount of each treatment group was determined and the concentration of the compound necessary for suppressing the residual cell amount to 50% of the control (IC50 value) was calculated.

[2] = biological target: T1, BRAF (V600E) kinase (Homo sapiens, UniProt P15056, V600E); assay: Determination of BRAF (V600E) kinase inhibitory activity; type: biochemical; conditions: 1.0 μM test compound; BRAF (V600E) enzyme, GST-MEK1 (K96R) substrate, [γ-32P]ATP; read-out: Inhibitory rate (%) at 1.0 μM
T1 construct: Flag (N); made in house; host or cells: SF-21 insect cells, recombinant baculovirus BAC-V600E
T1 sequence (P15056 457-717 V600E limits assumed): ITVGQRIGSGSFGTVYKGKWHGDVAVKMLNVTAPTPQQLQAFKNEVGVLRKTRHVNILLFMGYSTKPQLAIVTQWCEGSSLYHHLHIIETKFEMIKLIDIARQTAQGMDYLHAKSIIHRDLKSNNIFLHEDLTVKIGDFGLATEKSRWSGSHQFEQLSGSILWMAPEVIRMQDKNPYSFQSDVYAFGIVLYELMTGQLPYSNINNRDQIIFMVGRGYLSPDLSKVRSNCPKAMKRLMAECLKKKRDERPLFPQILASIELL
Method: Human BRAF gene was cloned by PCR using human Testis cDNA library (Clontech) as a template. The primer used for PCR was prepared from base sequence (Genbank Accession No.: NM_004333) information of BRAF gene by adding a base sequence encoding flag peptide and a recognition sequence of the restriction enzyme to area encoding the BRAF kinase domain region, so that the protein contains an N-terminal. Flag. The primer base sequence is shown below.
The PCR reaction was conducted using Pyrobest (Takara Shuzo Co., Ltd). The obtained PCR product was electrophoresed on agarose gel (1%), the DNA fragment amplified by PCR was recovered from the gel, and then digested with restriction enzymes EcoRI and SalI. The DNA treated with the restriction enzymes was electrophoresed on agarose gel (1%), and the obtained DNA fragment was recovered. The recovered DNA fragment was ligated to plasmid pFASTBAC1 (Invitrogen) digested with restriction enzymes EcoRI and SalI to give expression plasmid pFB-BRAF, and the base sequence of the insert fragment was confirmed. In addition, mutation was introduced into V600E using a Quick change Site Directed Mutagenesis kit (Stratagene). The base sequences of the primers used are shown in the following.
The obtained plasmid was sequenced to confirm the introduction of mutation into V600E. The DNA was digested with restriction enzymes EcoRI and SalI, DNA treated with the restriction enzymes was electrophoresed on agarose gel (1%), and the obtained DNA fragment was recovered. The recovered DNA fragment was ligated to plasmid pFASTBAC1 (Invitrogen) digested with restriction enzymes EcoRI and SalI to give expression plasmid pFB-V600E.
Using BAC-TO-BAC Baculovirus Expression System (Invitrogen), virus stock BAC-V600E of recombinant baculovirus was prepared.
SF-21 cells were sown at 1×10^6 cells/mL to Sf-900II SFM medium (1 L, Invitrogen) containing 10% fetal bovine serum (Trace), 50 mg/L Gentamicin (Invitrogen) and 0.1% Pluronic F-68 (Invitrogen), and shaking culture was performed using a 2 L volume Erlenmeyer flask at 27° C., 100 rpm. After culturing for 24 hr, recombinant baculovirus BAC-V600E (13.4 mL) was added to the mixture, and the mixture was further cultured for 3 days. The culture medium was centrifuged at 2,000 rpm for 5 min to give virus-infected cells. The infected cells were washed with a phosphate buffered saline (Invitrogen), centrifuged under the same conditions, and the cells were preserved at −80° C. The cryopreserved cells were thawed in ice, suspended in buffer A (50 mM Tris buffer (30 mL, pH 7.4) containing 20% glycerol, 0.15 M NaCl) supplemented with Complete Protease Inhibitor (Boehringer), and ruptured 3 times with a Polytron homogenizer (Kinematica) at 20,000 rpm for 30 sec. The ruptured medium was clarified by centrifugation at 40,000 rpm for 30 min and filtered with a 0.45 μm filter. The filtrate was passed through a column packed with Anti-FLAG M2 Affinity Gel (4 mL, Sigma) at a flow rate of about 0.5 mL/min. The column was washed with buffer A, and eluted with buffer A containing 100 μg/mL of FLAG peptide. The buffer of this eluate was exchanged using NAP25 column (Amersham Bioscience) equilibrated with buffer A and the fractions were cryopreserved at −80° C.
A test compound (2.5 μL) dissolved in dimethyl sulfoxide (DMSO) was added to 37.5 μL of a reaction mixture (25 mM HEPES (pH 7.5), 10 mM magnesium acetate, 1 mM dithiothreitol) containing BRAF (V600E) enzyme (30 ng) and recombinant type protein GST-MEK1 (K96R) 250 ng, and the mixture was incubated at room temperature for 10 min. ATP solution (10 μL, 2.5 μM ATP, 0.1 μCi [γ-^32P]ATP) was added to the obtained mixture, and the mixture was reacted at room temperature for 20 min. The reaction was quenched by adding 50 μL of ice-cooled. 20% trichloroacetic acid (Wako Pure Chemical Industries, Ltd.) to the reaction mixture. […]

SMILES | pIC50 [1] | inhibition at 1 µM [2] [%]
CN1CCN(CC(=O)Nc2nc3ccc(Oc4cccc(NC(=O)c5cccc(C(C)(C)C#N)c5)c4)cc3s2)CC1 [Example A13, 3-(1-cyano-1-methylethyl)-N-{3-[(2-{[(4-methylpiperazin-1-yl)acetyl]amino}-1,3-benzothiazol-6-yl)oxy]phenyl}benzamide] | > 6.30 | 
O=C(Nc1cccc(Oc2ccc3nc(NC(=O)C4CC4)sc3c2)c1)c1cccc(C(F)(F)F)c1 [Example A2, N-[3-({2-[(cyclopropylcarbonyl)amino]-1,3-benzothiazol-6-yl}oxy)phenyl]-3-(trifluoromethyl)benzamide] | > 6.30 | 
CC(C)(C#N)c1cccc(C(=O)Nc2cccc(Oc3ccc4nc(NC(=O)C5CC5)sc4c3)c2)c1 [Example A12, 3-(1-cyano-1-methylethyl)-N-[3-({2-[(cyclopropylcarbonyl)amino]-1,3-benzothiazol-6-yl}oxy)phenyl]benzamide] | > 6.30 | 100
COc1ccc(NC(=O)c2cccc(C(C)(C)C#N)c2)cc1Oc1ccc2nc(NC(=O)CN3CCN(C)CC3)sc2c1 [Example A23, 3-(1-cyano-1-methylethyl)-N-{4-methoxy-3-[(2-{[(4-methylpiperazin-1-yl)acetyl]amino}-1,3-benzothiazol-6-yl)oxy]phenyl}benzamide] | > 6.30 | 
